Assay results: PubChem BioAssay (NCI)
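Results reflect a 48-hour exposure of cells in 96-well plates to compound at five concentrations. Definition used: TGI = concentration required for complete inhibition of growth.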

How the values were obtained:
Experiment in all cases: growth of human tumour cells (NCI), 48 h
[1] = system: MALME-3M melanoma
[2] = system: PC-3 prostate
[3] = system: T-47D breast
[4] = system: IGROV1 ovarian
[5] = system: HT29 colon
[6] = system: UACC-62 melanoma
[7] = system: CAKI-1 renal
[8] = system: OVCAR-5 ovarian
[9] = system: A549 NSCLC
[10] = system: ACHN renal
[11] = system: UO-31 renal
[12] = system: HCT-116 colon
[13] = system: HOP-92 NSCLC
[14] = system: NCI/ADR-RES ovarian
[15] = system: COLO 205 colon
[16] = system: MCF7 breast
[17] = system: SN12C renal
[18] = system: SK-MEL-5 melanoma
[19] = system: SNB-75 CNS
[20] = system: OVCAR-3 ovarian
[21] = system: OVCAR-4 ovarian
[22] = system: SK-OV-3 ovarian
[23] = system: NCI-H460 lung
[24] = system: HL-60(TB) leukemia
[25] = system: NCI-H522 lung
[26] = system: SK-MEL-2 melanoma
[27] = system: HCT-15 colon
[28] = system: OVCAR-8 ovarian
[29] = system: MDA-MB-231 breast
[30] = system: SF-295 CNS
[31] = system: MOLT-4 leukemia
[32] = system: SF-268 CNS
[33] = system: SF-539 CNS
[34] = system: MDA-MB-435
[35] = system: HOP-62 NSCLC
[36] = system: NCI-H23 lung
[37] = system: UACC-257 melanoma
[38] = system: TK-10 renal
[39] = system: K-562 leukemia
[40] = system: SW-620 colon
[41] = system: U251 CNS
[42] = system: HS 578T breast
[43] = system: 786-0 renal
[44] = system: SR leukemia
[45] = system: M14 melanoma
[46] = system: KM12 colon
[47] = system: DU-145 prostate
[48] = system: EKVX NSCLC
[49] = system: BT-549 breast
[50] = system: SK-MEL-28 melanoma
[51] = system: SNB-19 CNS
[52] = system: NCI-H226 lung
[53] = system: RPMI-8226 leukemia
[54] = system: RXF 393 renal
[55] = system: A498 renal
[56] = system: HCC-2998 colon
[57] = system: CCRF-CEM leukemia

O=[N+]([O-])c1ccc(-c2nc(/C=N/N3CCCCC3)cs2)o1
TGI [1]: 76.6 µM
TGI [2]: > 100 µM
TGI [3]: > 100 µM
TGI [4]: > 100 µM
TGI [5]: 57.1 µM
TGI [6]: > 100 µM
TGI [7]: > 100 µM
TGI [8]: > 100 µM
TGI [9]: > 100 µM
TGI [10]: > 100 µM
TGI [11]: > 100 µM
TGI [12]: > 100 µM
TGI [13]: > 100 µM
TGI [14]: > 100 µM
TGI [15]: > 100 µM
TGI [16]: > 100 µM
TGI [17]: 68.1 µM
TGI [18]: 59.5 µM
TGI [19]: > 100 µM
TGI [20]: 82.4 µM
TGI [21]: > 100 µM
TGI [22]: > 100 µM
TGI [23]: > 100 µM
TGI [24]: > 100 µM
TGI [25]: > 100 µM
TGI [26]: > 100 µM
TGI [27]: > 100 µM
TGI [28]: > 100 µM
TGI [29]: > 100 µM
TGI [30]: > 100 µM
TGI [31]: 67 µM
TGI [32]: > 100 µM
TGI [33]: > 100 µM
TGI [34]: 62.6 µM
TGI [35]: > 100 µM
TGI [36]: > 100 µM
TGI [37]: 50.7 µM
TGI [38]: > 100 µM
TGI [39]: > 100 µM
TGI [40]: > 100 µM
TGI [41]: > 100 µM
TGI [42]: > 100 µM
TGI [43]: > 100 µM
TGI [44]: 73 µM
TGI [45]: > 100 µM
TGI [46]: > 100 µM
TGI [47]: > 100 µM
TGI [48]: > 100 µM
TGI [49]: > 100 µM
TGI [50]: > 100 µM
TGI [51]: > 100 µM
TGI [52]: > 100 µM
TGI [53]: 39.8 µM
TGI [54]: > 100 µM

COc1ccc2c(c1)-c1c(c3cc(OC)ccc3n1CCN1CCOCC1)CC2
TGI [1]: 79.2 µM
TGI [2]: > 100 µM
TGI [3]: > 100 µM
TGI [4]: > 100 µM
TGI [5]: 28.1 µM
TGI [6]: 52.6 µM
TGI [7]: > 100 µM
TGI [8]: > 100 µM
TGI [9]: > 100 µM
TGI [10]: > 100 µM
TGI [11]: > 100 µM
TGI [55]: > 100 µM
TGI [12]: > 100 µM
TGI [13]: > 100 µM
TGI [14]: 98.4 µM
TGI [15]: 37.3 µM
TGI [56]: 18.5 µM
TGI [16]: > 100 µM
TGI [17]: > 100 µM
TGI [18]: 79.5 µM
TGI [19]: > 100 µM
TGI [20]: > 100 µM
TGI [21]: > 100 µM
TGI [22]: > 100 µM
TGI [23]: > 100 µM
TGI [25]: > 100 µM
TGI [26]: > 100 µM
TGI [27]: 39.4 µM
TGI [28]: > 100 µM
TGI [29]: > 100 µM
TGI [30]: 55.2 µM
TGI [31]: 33.6 µM
TGI [32]: > 100 µM
TGI [33]: 93.6 µM
TGI [34]: > 100 µM
TGI [35]: > 100 µM
TGI [36]: > 100 µM
TGI [37]: > 100 µM
TGI [38]: > 100 µM
TGI [39]: 36.2 µM
TGI [40]: > 100 µM
TGI [41]: > 100 µM
TGI [42]: 39.9 µM
TGI [43]: 42.5 µM
TGI [44]: 22 µM
TGI [45]: 35 µM
TGI [46]: > 100 µM
TGI [47]: > 100 µM
TGI [49]: > 100 µM
TGI [50]: > 100 µM
TGI [52]: 30.6 µM
TGI [57]: 35.6 µM
TGI [53]: 85.5 µM
TGI [54]: 98 µM
